Assay [1] has as its system HL-60. As to the kind of experiment: Growth inhibition of human HL60 cells after 4 hrs by MTT assay. Conditions: HL-60, 4 h. In kind it is functional, cell-based. (Formazan colour is commonly taken as a measure of viable cells.)
The subject of assay [2] is HL-60. As to the kind of experiment: Antiproliferative activity against human HL60 cells assessed as cell viability at 10 ug/ml after 4 hrs by MTT assay. Conditions: HL-60, 4 h, read-out: Activity. In kind it is functional.
The test system of assay [3] is HL-60. As to the kind of experiment: Antiproliferative activity against human HL60 cells assessed as cell viability at 5 ug/ml after 4 hrs by MTT assay. Conditions: HL-60, 4 h, read-out: Activity. In kind it is functional.
Assay [4] relates to HL-60. As to the kind of experiment: Antiproliferative activity against human HL60 cells assessed as cell viability at 1 ug/ml after 4 hrs by MTT assay. The class given is functional. The following applies: HL-60, 4 h, read-out: Activity.
Assay [5] deals with HL-60. As to the kind of experiment: Antiproliferative activity against human HL60 cells assessed as cell viability at 20 ug/ml after 4 hrs by MTT assay. In kind it is functional. Conditions: HL-60, 4 h, read-out: Activity.
Assay [6] concerns HL-60. As to the kind of experiment: Antiproliferative activity against human HL60 cells assessed as cell viability after 4 hrs by MTT assay. The class given is functional.

Converted amounts (≈) assume the structure as drawn.

On to `CC/C(=C(/c1ccc(Br)cc1)c1ccc(OCCN(C)C)cc1)c1ccccc1`, for which, in the assay with HL-60 [1], the half-maximal inhibitory concentration (IC50) (usually the concentration at which inhibition is half-maximal) worked out at 6 µg/mL (≈ 13.3 µM). Moreover, the viability at 10 µg/mL in the assay on HL-60 [2] came to 13.2%. Further, the viability at 5 µg/mL in the assay on HL-60 [3] was determined as 59.2%. In the assay with HL-60 [4], the viability at 1 µg/mL worked out at 99.9%. Besides, in the assay with HL-60 [5], the viability at 20 µg/mL was found to be 7.01%. In addition, the Activity in the assay with HL-60 [6] was found to be 100%.

In the assay with HL-60 [1], `CC/C(=C(/c1ccc(OCCN(C)C)cc1)c1cccc(I)c1)c1ccccc1` came in with an IC50 of 19 µg/mL (≈ 38.2 µM). The viability at 10 µg/mL with HL-60 [2] turned out to be 97.2%. In addition, in the assay with HL-60 [3], the viability at 5 µg/mL worked out at 104%. For the same molecule, the viability at 1 µg/mL with HL-60 [4] came out at 109%. Moreover, in the assay with HL-60 [5], the viability at 20 µg/mL is 36%. Moreover, the Activity with HL-60 [6] is 100%.

Molecule `CC/C(=C(\c1ccc(I)cc1)c1ccc(OCCN2CCCC2)cc1)c1ccccc1` [IDOXIFENE] yielded an IC50 in the assay with HL-60 [1] of 7.7 µg/mL (≈ 14.7 µM). Besides, the viability at 10 µg/mL in the assay on HL-60 [2] was 25.5%. Also, in the assay with HL-60 [3], the viability at 5 µg/mL was found to be 82.7%. The viability at 1 µg/mL with HL-60 [4] came to 106%. The viability at 20 µg/mL with HL-60 [5] came out at 8.72%. Further, the Activity with HL-60 [6] worked out at 100%.

On to `CC/C(=C(\c1ccccc1)c1ccc(OCCN(C)C)cc1)c1ccccc1` [TAMOXIFEN], for which the IC50 with HL-60 [1] was determined as 5.9 µg/mL (≈ 15.9 µM). Besides, in the assay with HL-60 [2], the viability at 10 µg/mL turned out to be 15.9%. In the assay with HL-60 [3], the viability at 5 µg/mL came out at 53.5%. For the same molecule, in the assay with HL-60 [4], the viability at 1 µg/mL came to 96.2%. The viability at 20 µg/mL with HL-60 [5] was determined as 5.45%. Moreover, the Activity in the assay with HL-60 [6] is 100%.

The record behind these values is ChEMBL document CHEMBL1137553, “An expeditious synthesis of tamoxifen, a representative SERM (selective estrogen receptor modulator), via the three-component coupling reaction among aromatic aldehyde, cinnamyltrimethylsilane, and beta-chlorophenetole” (Bioorg Med Chem, 2007).
